According to patent US20030083374A1, “NAALADase inhibitors useful as pharmaceutical compounds and compositions” (priority 1998, published 2003):

What was measured:
[1] = tested on: cocaine-induced sensitization; assay: in vivo behavioral sensitization to cocaine; set-up: species or system Male Sprague-Dawley rats
Experimental: NAALADase hydrolyzes the abundant neuropeptide NAAG to liberate glutamate (GLU). The inventors hypothesized that inhibition of NAALADase could attenuate sensitization by preventing this source of GLU. […] Male Sprague-Dawley rats received home cage injections of cocaine (20 mg/kg/day×5 days; i.p.) or sale (1.0 ml/kg). […] Cocaine (20 mg/kg)-induced locomotor activity was assessed 3 days later. […]

Dunning G tumors = assay: in vivo cancer assay, Dunning G model, subcutaneous drug delivery; set-up: species or system Male Copenhagen syngenic rats
Experimental: Male Copenhagen syngenic rats, age 8 to 10 weeks, were injected in both flanks with 10^7 Dunning G cells. […] Controls received 50 mM HEPES s.c. daily. Tumors were measured twice a week.
(§1) Response to treatment was monitored in two ways. First, mean tumor volume for each group was presented as tumor:control ratio (% T/C) and these values were compared at one point in time. Second, tumor volume versus time was monitored.

alcohol-preferring rats = settings: rat, in vivo; cited from earlier work
[2] = tested on: hyperalgesia following sciatic nerve constriction; assay: chronic constrictive injury (CCI) model of pain; format: in vivo, rats
Excerpt: (§2) One source of neuronal glutamate is thought to derive from the abundant neuropeptide NAAG which is hydrolyzed by NAALADase to liberate free glutamate. The inventors hypothesized that inhibition of NAALADase could limit pain by preventing this source of glutamate. To test this hypothesis, the inventors examined the possible antinocipetive effects of several NAALADase inhibitors in the formalin-, acetic acid- and chronic constrictive injury (CCI; “Bennett model”) models of pain. […] On day 7, 5% formalin was injected into the dorsum of the rat's hindpaw.
Sciatic nerve ligation, consisting of 4 ligatures being tied loosely around the sciatic nerve at 1 mm intervals proximal to the nerve trifurcation, was performed on rats. […] Animals were habituated to the Hargreaves apparatus and the infrared heat source directed onto the […] surface of the hindpaw and the time taken for the animal to withdraw its paw noted. The difference score (between the latency of the response for the paw on the operated side versus the control side) was determined. […] Normal (unoperated) rats had approximately equal latencies for both paws. This effect was significant starting at 11 days of drug treatment and persisted through to the end of the study (for 21 days of daily dosing).

[3] = tested on: stroke-induced extracellular glutamate increases; settings: rats; cited from earlier work
[4] = tested on: spinal cord organotypic cultures; settings: cited from earlier work
[5] = tested on: acetic acid (0.6%) induced writhing; assay: acetic acid model of pain (writhing); format: in vivo, mice; settings: pretreated
Excerpt: as §2

LNCaP tumors [6] = assay: in vivo cancer assay, LNCaP model, intratumoral drug delivery; set-up: species or system Ncr nude male mice
Experimental: Ncr nude male mice, age 5 to 6 weeks, were injected in the right flank with 10^7 LNCaP cells in Matrigel™ (0.1 ml total injection volume). When the tumors reached a predetermined size (50 to 60 mm^3) mice.were randomly placed into treatment groups of 6 to 8 mice each. […] Controls received 50 μl of 50 mM HEPES intratumorally daily. Tumors were measured twice a week.
as §1

[7] = tested on: angiogenesis in Matrigel plugs; assay: in vivo assay of daily dosages on angiogenesis (Matrigel plug, bFGF); set-up: species or system C57B1 female mice; settings: 3 mg/kg and 30 mg/kg daily s.c., seven days
Experimental: The injected Matrigel™ rapidly formed a gel. On the same a day as the Matrigel™ injection, daily subcutaneous injections of Compound 3 around the Matrigel™ plug were initiated. Seven days post Matrigel™ injection, Matrigel™ plugs were excised and histology was performed.
The concentrations of the daily dosages as well as the coinciding initial Matrigel™ plug compositions are provided below in TABLE VI.

[8] = tested on: formalin-induced flinching behavior; assay: formalin model of pain; format: in vivo, rats; settings: 50 mg/kg i.p. daily for 7 days
Excerpt: as §2

[9] = tested on: cryolesion of the sciatic nerve; settings: sciatic nerves in mice; cited from earlier work
LNCaP tumors [10] = assay: in vivo cancer assay, LNCaP model, subcutaneous drug delivery; set-up: species or system Ncr nude male mice
Experimental: Ncr nude male mice, age 5 to 6 weeks, were injected in the right flank with 5×10^6 LNCaP cells in Matrigel™ (0.1 ml total injection volume). […] Controls received 50 mM HEPES s.c. daily. Once tumors were palpable they were measured twice a week.
as §1

[11] = tested on: angiogenesis in the Matrigel/bFGF gels; assay: in vivo assay of a continuous dosage on angiogenesis (minipump, Matrigel/bFGF); set-up: species or system C57B1 female mice
Experimental: Minipumps filled with vehicle (50 mM Hepes) were also implanted at this time. Twenty-four hours later, mice were each injected subcutaneously with 0.5 mL Matrigel™ and the 150 ng/mL of the angiogenic factor, basic FGF (bFGF). Thirteen days post Matrigel™/bFGF injection, the gels were recovered, fixed in formalin and sections were stained with Trichrome-Masson stain.

[12] = tested on: dynorphin-induced spinal cord injury; settings: co-administered with dynorphin A; by 24-hour post-injection; cited from earlier work
LNCaP cells = settings: as the concentration increased; cited from earlier work
[13] = tested on: nicotine self-administration in rats; settings: rat, in vivo; cited from earlier work
MPTP lesioned mice = settings: cited from earlier work
[14] = tested on: Dorsal root ganglia-Schwann cell co-cultures; assay: in vitro myelination in dorsal root ganglia-Schwann cell co-cultures; format: cell-based
Excerpt: The inventors hypothesized that NAALADase may play a role in signaling myelin formation and inhibition of NAALADase may facilitate myelination. To test this hypothesis, the inventors examined the effects of several NAALADase inhibitors in a well established in vitro model system of myelination. Dorsal root ganglia-Schwann cell co-cultures were established as previously described (Einheber et al., J. Cell. Biol., Vol. 123, p. 1223). Following 7 days in co-culture, myelination was initiated following the addition of serum and ascorbic acid with various doses of NAALADase inhibitors (1 nM to 10 μM) or progesterone (20 nM; positive control). The extent of myelination was examined between days 14-21 using immunocytochemical staining for myelin basic protein (MBP), a known myelin marker.

[15] = 50 mg/kg i.p. daily starting 10 days after surgery, day 18

Compound: O=C(O)CCC(CP(=O)(O)O)C(=O)O (centres unmarked) [Compound 3, 2-(phosphonomethyl)-pentanedioic acid]
- enhancement of cocaine (20 mg/kg)-induced locomotor activity (sensitization) ([1]; 10 and 50 mg/kg, 15 minutes prior to cocaine injections x 5 days, assessed 3 days later): significantly reduced
- basal locomotor activity or the response to saline ([1]; Compound 3 on its own): did not alter
- tumor size, % of controls (Dunning G tumors; 10 mg/kg s.c. daily): 38%
- tumor size, % of controls (Dunning G tumors; 30 mg/kg s.c. daily): 22%
- effect on tumor growth (Dunning G tumors; 1 and 3 mg/kg s.c. daily): no effect on tumor growth
- body weights or 24 hour water intakes (alcohol-preferring rats): without affecting
- ethanol consumption (alcohol-preferring rats): significantly reduced
- difference scores (thermal pain response) [2, 15]: −0.2±1.9
- pain attenuation vs. operated vehicle group [2, 15]: 98%
- difference scores between the two paws vs. vehicle-treated controls ([2]; 50 mg/kg i.p. daily starting 10 days post surgery, significant starting at 11 days, through 21 days of dosing): dramatically normalized
- concurrent glutamate changes in the parietal cortex [3]: completely prevented
- stroke-induced extracellular glutamate increases in the striatum [3]: significantly attenuated
- protection against THA-induced toxicity [4]: dose-dependent protection
- acetic acid (0.6%) induced writhing vs. vehicle control [5]: significantly attenuated
- Tumor volume (LNCaP tumors [6]; after 42 days of treatment, intratumoral 0.025 μg/day): 465.7±176 mm^3
- Optimal % T/C (LNCaP tumors [6]; intratumoral 0.025 μg/day): 42%
- Regressions (LNCaP tumors [6]; intratumoral 0.025 μg/day): 1/7
- Optimal % T/C (LNCaP tumors [6]; intratumoral 0.25 μg/day): 51%
- Regressions (LNCaP tumors [6]; intratumoral 0.25 μg/day): 1/7
- Optimal % T/C (LNCaP tumors [6]; intratumoral 2.5 μg/day): 45%
- Regressions (LNCaP tumors [6]; intratumoral 2.5 μg/day): 0/7
- Optimal % T/C (LNCaP tumors [6]; intratumoral 25.0 μg/day): 76%
- Regressions (LNCaP tumors [6]; intratumoral 25.0 μg/day): 0/7
- tumor growth (LNCaP tumors [6]; intratumoral 0.025, 0.25 and 2.5 μg/day): slowed tumor growth substantially
- blood vessels or angiogenesis in the Matrigel plugs [7]: decrease in blood vessels or angiogenesis
- effect compared with acute pretreatment with morphine (5 mg/kg) [8]: more robust
- flinching behavior, early phase ([8]; 5% formalin on day 7): 2.5±3
- flinching behavior, late phase ([8]; 5% formalin on day 7): 0.5±0.58
- myelin thickness [9]: increase
- myelinated axon number [9]: increase
- tumor growth, % of controls (LNCaP tumors [10]; 10 mg/kg s.c. daily, day 86): 24%
- effect on tumor growth (LNCaP tumors [10]; 1, 3 and 30 mg/kg s.c. daily): no effect on tumor growth
- angiogenic response ([11]; 1 μg/day by minipump): strong angiogenic response
- angiogenesis in the Matrigel/bFGF gels ([11]; 10 μg/day and 100 μg/day by minipump): significantly decreased angiogenesis
- motor scores [12]: significant improvement
- LNCaP cell proliferation (LNCaP cells): decreased significantly
- cumulative food intakes [13]: reduced
- nicotine self-administration [13]: reduced
- TH-stained dopaminergic neurons (MPTP lesioned mice): significant recovery
- immunostaining of MBP ([14]; 1 nM, two week treatment): significant increase
- extent of myelination vs. maximal doses of ascorbic acid and progesterone ([14]; high dose, 1 μM): greater extent of myelination
